Patent US6358885B1, “Substituted phenylheterocyclic herbicides” (Mississippi State University, priority 1992, dated 2002)

Columns and labels:
cotton = test: Test C preemergence/postemergence greenhouse plant response rating 0 to 100; assay type: in vivo, Gossypium hirsutum; conditions: POSTEMERGENCE
Excerpt: (§1) The compounds evaluated in this test were formulated in a non-phytoxic solvent and applied to the soil surface before plant seedlings emerged (preemergence application), to water that covered the soil surface (flood application), and to plants that were in the one-to-four leaf stage (postemergence application). A sandy loam soil was used for the preemergence and postemergence tests, while a silt loam soil was used in the flood test. Water depth was approximately 2.5 cm for the flood test and was maintained at this level for the duration of the test. Plant species in the preemergence and postemergence tests consisted of barley (Hordeum vulgare), bedstraw (Galium aparine), blackgrass (Alopecurus myosuroides), chickweed (Stellaria media), corn (Zea mays), cotton (Gossypium hirsutum), crabgrass (Digitaria sanguinalis), downy brome (Bromus tectorum), giant foxtail (Setaria faberii), lambsquarters (Chenopodium album), morningglory (Ipomoea hederacea), pigweed ([…]), rape (Brassica napus), ryegrass (Lolium multiflorum), sorghum (Sorghum bicolor), soybean (Glycine max), speedwell (Veronica persica), sugar beet (Beta vulgaris), velvetleaf (Abutilon theophrasti), wheat (Triticum aestivum), wild buckwheat (Polygonum convolvulus), and wild oat (Avena fatua). All plant species were planted one day before application of the compound for the preemergence portion-of this test. Plantings of these species were adjusted to produce plants of appropriate size for the post-emergence portion of the test. […] All plant species were grown using normal greenhouse practices. Visual evaluations of injury expressed on treated plants, when compared to untreated controls, were recorded approximately fourteen to twenty one days after application of the test compound. […] A dash (-) response means no test result.

soybean = test: as above; assay type: in vivo, Glycine max; conditions: POSTEMERGENCE
Excerpt: as §1

ryegrass = test: as above; assay type: in vivo, Lolium multiflorum; conditions: POSTEMERGENCE
Excerpt: as §1

velvetleaf = test: as above; assay type: in vivo, Abutilon theophrasti; conditions: POSTEMERGENCE
Excerpt: as §1

chickweed [1] = test: as above; assay type: in vivo, Stellaria media; conditions: POSTEMERGENCE
Excerpt: as §1

corn = test: Test B preemergence/postemergence greenhouse plant response rating 0 to 10; assay type: in vivo, Zea mays; conditions: Rate 50 g/ha, 0 to 10 scale
Method in brief: (§2)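 Test chemicals were sprayed onto freshly planted seed and, concurrently, onto young plants between the one and four leaf stage. After a twelve- to sixteen-day greenhouse period, each species was visually compared with untreated controls.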

sugar beet = test: Test C preemergence/postemergence greenhouse plant response rating 0 to 100; assay type: in vivo, Beta vulgaris; conditions: POSTEMERGENCE
Excerpt: as §1

wild oat = test: Test B preemergence/postemergence greenhouse plant response rating 0 to 10; assay type: in vivo, Avena fatua; conditions: 0 to 10 scale
Method in brief: as §2

cheatgrass = test: as above; assay type: in vivo, Bromus secalinus; conditions: 0 to 10 scale
Method in brief: as §2

downy brome = test: Test C preemergence/postemergence greenhouse plant response rating 0 to 100; assay type: in vivo, Bromus tectorum; conditions: POSTEMERGENCE
Excerpt: as §1

wild buckwheat [2] = test: Test B preemergence/postemergence greenhouse plant response rating 0 to 10; assay type: in vivo, Polygonum convolvulus; conditions: 0 to 10 scale
Method in brief: as §2

barley = test: Test C preemergence/postemergence greenhouse plant response rating 0 to 100; assay type: in vivo, Hordeum vulgare; conditions: POSTEMERGENCE
Excerpt: as §1

chickweed [3] = test: Test B preemergence/postemergence greenhouse plant response rating 0 to 10; assay type: in vivo, Stellaria media; conditions: 0 to 10 scale
Method in brief: as §2

lambsquarters = test: Test C preemergence/postemergence greenhouse plant response rating 0 to 100; assay type: in vivo, Chenopodium album; conditions: POSTEMERGENCE
Excerpt: as §1

wild buckwheat [4] = test: as above; assay type: in vivo, Polygonum convolvulus; conditions: POSTEMERGENCE
Excerpt: as §1

giant foxtail = test: Test B preemergence/postemergence greenhouse plant response rating 0 to 10; assay type: in vivo, Setaria faberii; conditions: 0 to 10 scale
Method in brief: as §2

sorghum = test: as above; assay type: in vivo, Sorghum bicolor; conditions: 0 to 10 scale
Method in brief: as §2

C#CCN1C(=O)COc2cc(F)c(-c3nn4c(c3Br)CCCC4)cc21 [Compound 56]
Plant response rating, Cotton (cotton; 62 g/ha, 0 to 100 scale): 100 | Plant response rating (0 to 100), Cotton (cotton; Rate 1 g/ha): 100 | Plant response rating (0 to 100), Cotton (cotton; Rate 4 g/ha): 100 | Plant response rating (0 to 100), Cotton (cotton; Rate 16 g/ha): 100 | Plant response rating, Soybean (soybean; 62 g/ha, 0 to 100 scale): 95 | Plant response rating (0 to 100), Soybean (soybean; Rate 1 g/ha): 40 | Plant response rating (0 to 100), Soybean (soybean; Rate 4 g/ha): 60 | Plant response rating (0 to 100), Soybean (soybean; Rate 16 g/ha): 90 | Plant response rating Ryegrass (ryegrass; 62 g/ha, 0 to 100 scale): 50 | Plant response rating (0 to 100), Ryegrass (ryegrass; Rate 1 g/ha): 20 | Plant response rating (0 to 100), Ryegrass (ryegrass; Rate 4 g/ha): 40 | Plant response rating (0 to 100), Ryegrass (ryegrass; Rate 16 g/ha): 40 | Plant response rating, Velvetleaf (velvetleaf; 62 g/ha, 0 to 100 scale): 100 | Plant response rating (0 to 100), Velvetleaf (velvetleaf; Rate 1 g/ha): 100 | Plant response rating (0 to 100), Velvetleaf (velvetleaf; Rate 4 g/ha): 100 | Plant response rating (0 to 100), Velvetleaf (velvetleaf; Rate 16 g/ha): 100 | Plant response rating, Chickweed (chickweed [1]; 62 g/ha, 0 to 100 scale): 100 | Plant response rating (0 to 100), Chickweed (chickweed [1]; Rate 1 g/ha): 65 | Plant response rating (0 to 100), Chickweed (chickweed [1]; Rate 4 g/ha): 80 | Plant response rating (0 to 100), Chickweed (chickweed [1]; Rate 16 g/ha): 100 | Plant response rating, Corn (corn; POSTEMERGENCE): 3 | Plant response rating, Corn (corn; PREEMERGENCE): 0 | Plant response rating, Sugar beet (sugar beet; 62 g/ha, 0 to 100 scale): 100 | Plant response rating (0 to 100), Sugar beet (sugar beet; Rate 1 g/ha): 100 | Plant response rating (0 to 100), Sugar beet (sugar beet; Rate 4 g/ha): 100 | Plant response rating (0 to 100), Sugar beet (sugar beet; Rate 16 g/ha): 100 | Plant response rating, Wild oat (wild oat; POSTEMERGENCE, Rate 10 g/ha): 6 | Plant response rating, Wild oat (wild oat; POSTEMERGENCE, Rate 50 g/ha): 6 | Plant response rating, Wild oat (wild oat; PREEMERGENCE, Rate 50 g/ha): 5 | Plant response rating, Cheatgrass (cheatgrass; POSTEMERGENCE, Rate 10 g/ha): 5 | Plant response rating, Cheatgrass (cheatgrass; POSTEMERGENCE, Rate 50 g/ha): 6 | Plant response rating, Cheatgrass (cheatgrass; PREEMERGENCE, Rate 10 g/ha): 5 | Plant response rating, Cheatgrass (cheatgrass; PREEMERGENCE, Rate 50 g/ha): 5 | Plant response rating Downy Brome (downy brome; 62 g/ha, 0 to 100 scale): 70 | Plant response rating (0 to 100), Downy Brome (downy brome; Rate 1 g/ha): 40 | Plant response rating (0 to 100), Downy Brome (downy brome; Rate 4 g/ha): 50 | Plant response rating (0 to 100), Downy Brome (downy brome; Rate 16 g/ha): 60 | Plant response rating, Wild buckwheat (wild buckwheat [2]; POSTEMERGENCE, Rate 10 g/ha): 10 | Plant response rating, Wild buckwheat (wild buckwheat [2]; POSTEMERGENCE, Rate 50 g/ha): 10 | Plant response rating, Wild buckwheat (wild buckwheat [2]; PREEMERGENCE, Rate 50 g/ha): 9 | Plant response rating Barley Igri (barley; 62 g/ha, 0 to 100 scale): 50 | Plant response rating (0 to 100), Barley Igri (barley; Rate 1 g/ha): 30 | Plant response rating (0 to 100), Barley Igri (barley; Rate 4 g/ha): 30 | Plant response rating (0 to 100), Barley Igri (barley; Rate 16 g/ha): 50 | Plant response rating, Chickweed (chickweed [3]; POSTEMERGENCE, Rate 10 g/ha): 9 | Plant response rating, Chickweed (chickweed [3]; POSTEMERGENCE, Rate 50 g/ha): 10 | Plant response rating, Chickweed (chickweed [3]; PREEMERGENCE, Rate 10 g/ha): 9 | Plant response rating, Chickweed (chickweed [3]; PREEMERGENCE, Rate 50 g/ha): 10 | Plant response rating Lambsquarters (lambsquarters; 62 g/ha, 0 to 100 scale): 100 | Plant response rating (0 to 100), Lambsquarters (lambsquarters; Rate 1 g/ha): 85 | Plant response rating (0 to 100), Lambsquarters (lambsquarters; Rate 4 g/ha): 100 | Plant response rating (0 to 100), Lambsquarters (lambsquarters; Rate 16 g/ha): 100 | Plant response rating, Wild buckwheat (wild buckwheat [4]; 62 g/ha, 0 to 100 scale): 100 | Plant response rating (0 to 100), Wild buckwheat (wild buckwheat [4]; Rate 1 g/ha): 100 | Plant response rating (0 to 100), Wild buckwheat (wild buckwheat [4]; Rate 4 g/ha): 100 | Plant response rating (0 to 100), Wild buckwheat (wild buckwheat [4]; Rate 16 g/ha): 100 | Plant response rating, Giant foxtail (giant foxtail; POSTEMERGENCE, Rate 10 g/ha): 4 | Plant response rating, Giant foxtail (giant foxtail; POSTEMERGENCE, Rate 50 g/ha): 6 | Plant response rating, Giant foxtail (giant foxtail; PREEMERGENCE, Rate 10 g/ha): 0 | Plant response rating, Giant foxtail (giant foxtail; PREEMERGENCE, Rate 50 g/ha): 0 | Plant response rating, Sorghum (sorghum; POSTEMERGENCE, Rate 10 g/ha): 3 | Plant response rating, Sorghum (sorghum; POSTEMERGENCE, Rate 50 g/ha): 2 | Plant response rating, Sorghum (sorghum; PREEMERGENCE, Rate 50 g/ha): 0
